Source: the NIST ThermoML archive (doi:10.1016/j.jct.2016.10.029)
± gives the expanded uncertainty stated by the source.

How the values were obtained:
[1] = Molar enthalpy of transition or fusion; conditions: Crystal; DSC
[2] = Crystal; DTA

## CCOc1cc(C=O)ccc1O [3-ethoxy-4-hydroxybenzaldehyde]
[1]
  Molar enthalpy of transition or fusion: 23.8 ± 1.1 kJ/mol
[2]
  Normal melting temperature: 79.83 ± 1.1 °C
